This passage reports TGI results from PubChem BioAssay (NCI).

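48-hour exposure; five concentrations; linearly interpolated endpoints. At the TGI there is no net growth.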

Among the test systems are NCI-H522 lung; COLO 205 colon; ACHN renal; HL-60(TB) leukemia; UACC-257 melanoma; A498 renal; SK-MEL-2 melanoma; OVCAR-4 ovarian; SNB-75 CNS; EKVX NSCLC; M14 melanoma; CCRF-CEM leukemia; SN12C renal; HT29 colon; SK-MEL-5 melanoma; LOX IMVI melanoma; RPMI-8226 leukemia; MCF7 breast; MDA-MB-231 breast; DU-145 prostate.
What all share (assay): inhibition of tumour cell growth, NCI panel, 48 h

With `CCOC(=O)C1=C(O)C(=O)c2ccoc2C1=O`, the TGI with NCI-H522 lung, in the test with COLO 205 colon, with ACHN renal, in the test with HL-60(TB) leukemia, in the test on UACC-257 melanoma and in the test on A498 renal was above 100 µM in each case. The TGI in the test on SK-MEL-2 melanoma, in the test on OVCAR-4 ovarian, in the test on SNB-75 CNS, in the test with EKVX NSCLC, in the test with M14 melanoma and with CCRF-CEM leukemia was above 100 µM in each case. Moreover, the TGI with SN12C renal, in the test with HT29 colon, in the test on SK-MEL-5 melanoma, with LOX IMVI melanoma and in the test with RPMI-8226 leukemia was above 100 µM each time.

For the molecule `O=C(Cn1c2c(c3ccccc31)CCCC2)N1CCCCC1`, the TGI in the test with COLO 205 colon, in the test with ACHN renal, in the test with HL-60(TB) leukemia, with UACC-257 melanoma, with SK-MEL-2 melanoma and in the test with OVCAR-4 ovarian was above 100 µM each time. The TGI with EKVX NSCLC, in the test with MCF7 breast, with M14 melanoma, with SN12C renal, with HT29 colon and in the test on SK-MEL-5 melanoma was above 100 µM each time. Moreover, the TGI in the test on LOX IMVI melanoma and in the test on RPMI-8226 leukemia was above 100 µM throughout.

As to `O=C(/C=C/c1ccccc1)c1cc(C(=O)/C=C/c2ccccc2)c(O)cc1O`, the TGI was above 100 µM in the test on COLO 205 colon; above 100 µM in the test on ACHN renal; above 100 µM with HL-60(TB) leukemia; above 100 µM in the test with UACC-257 melanoma; 90.7 µM in the test with A498 renal; above 100 µM with SK-MEL-2 melanoma. Also, the TGI in the test with EKVX NSCLC, in the test with MCF7 breast, in the test on M14 melanoma, in the test on SN12C renal, with HT29 colon and in the test on SK-MEL-5 melanoma was above 100 µM in each case. Moreover, the TGI in the test on LOX IMVI melanoma and in the test with RPMI-8226 leukemia was above 100 µM throughout.

`CC(C)(C)n1c(=O)n(-c2ccccc2)n(C(C)(C)C)c1=O`: the TGI in the test with COLO 205 colon, with ACHN renal, in the test with HL-60(TB) leukemia, in the test on UACC-257 melanoma, in the test with A498 renal and in the test with SK-MEL-2 melanoma was above 100 µM throughout. Also, the TGI with OVCAR-4 ovarian, with SNB-75 CNS, in the test on MDA-MB-231 breast, in the test with EKVX NSCLC, in the test with MCF7 breast and with M14 melanoma was above 100 µM each time. Besides, the TGI with CCRF-CEM leukemia, with SN12C renal, in the test with HT29 colon, with SK-MEL-5 melanoma and in the test with LOX IMVI melanoma was above 100 µM each time.

Turning to `CN(/N=C/C=N/N(C)C1=NCCCN1)C1=NCCCN1`, the TGI with NCI-H522 lung, in the test on COLO 205 colon, in the test with ACHN renal, in the test with UACC-257 melanoma, in the test with OVCAR-4 ovarian and in the test with SNB-75 CNS was above 100 µM each time. For the same molecule, the TGI with MDA-MB-231 breast, in the test with EKVX NSCLC, in the test with MCF7 breast, with M14 melanoma, with CCRF-CEM leukemia and in the test on SN12C renal was above 100 µM each time. Besides, the TGI in the test with HT29 colon, in the test with SK-MEL-5 melanoma and in the test on LOX IMVI melanoma was above 100 µM each time.

In the case of `CN(C(=S)Cc1ccc(Cl)c(Cl)c1)C1CCCC[C@@H]1N1CCCC1` (some centres undefined), the TGI was above 100 µM in the test with ACHN renal; above 100 µM with HL-60(TB) leukemia; 60.6 µM in the test with A498 renal; above 100 µM in the test with SK-MEL-2 melanoma; above 100 µM in the test on OVCAR-4 ovarian; above 100 µM with MDA-MB-231 breast. The TGI in the test with EKVX NSCLC was above 100 µM; with DU-145 prostate it was above 100 µM; in the test with M14 melanoma, 37.2 µM; in the test with SN12C renal it was above 100 µM; with HT29 colon, 45.5 µM; with SK-MEL-5 melanoma, 33 µM. Moreover, in the test on RPMI-8226 leukemia, the TGI was above 100 µM.

With `C=C1CCC2[C@](C)(CCC[C@]2(C)C(=O)O)[C@@H]1CCc1ccoc1` (some centres undefined), the TGI in the test on NCI-H522 lung is above 100 µM; in the test on COLO 205 colon, 33 µM; in the test on ACHN renal, above 100 µM; in the test on HL-60(TB) leukemia it was 71.2 µM; with UACC-257 melanoma, 83.5 µM; with A498 renal it was above 100 µM. The TGI in the test on SK-MEL-2 melanoma is 85 µM; in the test on OVCAR-4 ovarian it was above 100 µM; in the test with SNB-75 CNS, above 100 µM; in the test with MDA-MB-231 breast it was above 100 µM; in the test with EKVX NSCLC, above 100 µM; in the test on DU-145 prostate, above 100 µM. Besides, the TGI in the test with M14 melanoma is above 100 µM; in the test with CCRF-CEM leukemia it was above 100 µM; in the test on SN12C renal it was above 100 µM; in the test with HT29 colon, 55.7 µM; with SK-MEL-5 melanoma it was 84.8 µM; with LOX IMVI melanoma, 38 µM. The TGI in the test on RPMI-8226 leukemia is above 100 µM.

On to `O=C(O/N=c1/ccc(=O)/c(=N\OC(=O)c2ccccc2)c1=O)c1ccccc1`, for which the TGI in the test with NCI-H522 lung was above 100 µM; in the test on COLO 205 colon, above 100 µM; in the test with ACHN renal it was above 100 µM; in the test on HL-60(TB) leukemia, 52.1 µM; in the test with A498 renal, above 100 µM; with OVCAR-4 ovarian, above 100 µM. In addition, the TGI with SNB-75 CNS is above 100 µM; with EKVX NSCLC, above 100 µM; in the test with MCF7 breast, above 100 µM; in the test with M14 melanoma, above 100 µM; with CCRF-CEM leukemia, 89.7 µM; in the test with SN12C renal, above 100 µM. Besides, the TGI in the test on HT29 colon, in the test with SK-MEL-5 melanoma, in the test on LOX IMVI melanoma and in the test on RPMI-8226 leukemia was above 100 µM in each case.

Take `Cc1ccc(C)n2c1nc1cc3ccccc3cc12`: the TGI is above 100 µM in the test with COLO 205 colon; above 100 µM with ACHN renal; above 100 µM with HL-60(TB) leukemia; above 100 µM with UACC-257 melanoma; 57.6 µM with SNB-75 CNS; above 100 µM with EKVX NSCLC. For the same molecule, the TGI was 16 µM with MCF7 breast; above 100 µM in the test with DU-145 prostate; above 100 µM in the test with M14 melanoma; above 100 µM in the test on CCRF-CEM leukemia; above 100 µM in the test on SN12C renal; 93 µM in the test with SK-MEL-5 melanoma. In the test on RPMI-8226 leukemia, this molecule showed a TGI above 100 µM.

`Cc1cc(S(=O)(=O)NC2=NCCCN2)c(S)cc1Cl`: the TGI is 62.8 µM in the test on NCI-H522 lung; above 100 µM in the test on COLO 205 colon; above 100 µM in the test with ACHN renal; 45.9 µM in the test on HL-60(TB) leukemia; above 100 µM with UACC-257 melanoma; above 100 µM in the test with A498 renal. The TGI with SK-MEL-2 melanoma was 77.7 µM; with OVCAR-4 ovarian, above 100 µM; in the test with SNB-75 CNS, above 100 µM; with MDA-MB-231 breast, above 100 µM; with EKVX NSCLC, above 100 µM; in the test on DU-145 prostate it was above 100 µM. The TGI in the test with M14 melanoma was 86.1 µM; with SN12C renal, above 100 µM; in the test on HT29 colon it was 49.6 µM; with SK-MEL-5 melanoma, 32.4 µM; in the test on LOX IMVI melanoma, 42.6 µM.

For the molecule `C=C1C2CC3CCC2C(OC(=O)c2ccccc2C(=O)O)C13` (centres undefined), the TGI with NCI-H522 lung, in the test with COLO 205 colon, in the test with ACHN renal, in the test with HL-60(TB) leukemia, in the test on UACC-257 melanoma and in the test on A498 renal was above 100 µM throughout. The TGI with SK-MEL-2 melanoma, with OVCAR-4 ovarian, with SNB-75 CNS, with MDA-MB-231 breast, in the test with EKVX NSCLC and in the test with DU-145 prostate was above 100 µM throughout. Moreover, the TGI in the test with M14 melanoma, with CCRF-CEM leukemia, with SN12C renal, with HT29 colon, with SK-MEL-5 melanoma and with LOX IMVI melanoma was above 100 µM throughout.

As to `Cc1cc2c(nn1)CCc1c-2no[n+]1[O-]`, the TGI in the test on NCI-H522 lung, with COLO 205 colon, with ACHN renal, in the test with UACC-257 melanoma, with SK-MEL-2 melanoma and in the test with OVCAR-4 ovarian was above 100 µM throughout. The TGI in the test with SNB-75 CNS, in the test on MDA-MB-231 breast, in the test with EKVX NSCLC, in the test with MCF7 breast, in the test on M14 melanoma and with CCRF-CEM leukemia was above 100 µM in each case. The TGI in the test on SN12C renal, with HT29 colon, in the test with SK-MEL-5 melanoma, with LOX IMVI melanoma and in the test on RPMI-8226 leukemia was above 100 µM in each case.

For `CCCCCCCCCCCCCCCCCCOCC(C[N+]1(C)CCC(O)CC1)OCC` (centres undefined), the TGI came to 31 µM in the test on NCI-H522 lung; 14.2 µM with COLO 205 colon; 8.42 µM with HL-60(TB) leukemia; 28 µM in the test on UACC-257 melanoma; 54.9 µM in the test with A498 renal; 20.9 µM in the test with SK-MEL-2 melanoma. Further, the TGI in the test on OVCAR-4 ovarian is 18 µM; in the test with SNB-75 CNS it was 19.2 µM; in the test on EKVX NSCLC, 46.3 µM; with M14 melanoma, 23.4 µM; in the test on CCRF-CEM leukemia, 5.55 µM; in the test with SN12C renal it was 15.4 µM. Further, the values for the TGI in the test with HT29 colon and with RPMI-8226 leukemia were 14.9 µM and 11.5 µM, respectively.

With `O=C1C[C@@H]2[C@@H](c3ccccc3)[C@@H]3C(=O)c4ccccc4NC(=O)[C@H]3[C@]2(O)c2ccccc2N1`, the TGI in the test on NCI-H522 lung, in the test with COLO 205 colon, in the test with ACHN renal, in the test on HL-60(TB) leukemia, in the test with SK-MEL-2 melanoma and in the test with OVCAR-4 ovarian was above 100 µM in each case. Moreover, the TGI in the test on SNB-75 CNS, in the test with EKVX NSCLC, in the test with M14 melanoma, in the test on CCRF-CEM leukemia, in the test on SN12C renal and in the test with HT29 colon was above 100 µM each time. Further, the TGI with SK-MEL-5 melanoma, in the test with LOX IMVI melanoma and in the test with RPMI-8226 leukemia was above 100 µM throughout.
